The values below come from patent US7601850B2, “Phenyl-thiophene type vitamin D receptor modulators” (Eli Lilly and Company, priority 2002, dated 2009).

Each structure is given as a SMILES string. pEC50, pIC50: −log10 of the molar value. Like-named read-outs stand apart in the source and are kept apart here. Some results are limits rather than exact numbers.

Data set [1] can be described thus: Mouse hypercalcemia assay (six day, serum ionized calcium). It counts as in vivo. The protocol: 5. The Mouse Hypercalcemia test is described in the “Assay” section of the Description, infra.
4. The Mouse Hypercalcemia Assay
The Mouse Hypercalcemia Assay is a six day hypercalcemia test for toxicity and selectivity. Acceptable test results are levels greater than 300 μg/kg/day. Preferred assay results are levels greater than 1000 μg/kg/day.
(4) Materials and Method for The Mouse Hypercalcemia Assay:
Weanling, virus-antibody-free, five to six weeks old female DBF mice (Harlan, Indianapolis, Ind.) are used for all the studies. Animals are allowed to acclimate to local vivarium conditions for 2 days. […] The animals then are divided into groups with 4-5 mice per group. Different doses of test compounds prepared in 10% Ethanol and 90% sesame oil are administered to mice orally via gavage for 6 days. 1α-25(OH)2D3 0.5 μg/kg/d was also given to one group of mice as the positive control. Serum ionized calcium is evaluated at 6 hours after the last dosing under isoflurane anesthesia by Ciba-Corning Ca++/PH Analyzer, (Model 634, Chiron Diagnostics Corp., East Walpole, Mass.). Raw data of group differences is assessed by analysis of variance (ANOVA) using Fisher's protected least significant difference (PLSD) where the significance level was P<0.05.

The subject of data set [2] is IL-10 production in peripheral blood mononuclear cells (PBMCs). Kind of data set: Human IL-10 induction assay in PBMCs. It counts as cell-based. The settings on record: TPA/PHA stimulated human PBMCs, IL-10 in supernatant by immunoassay. From the text:
7. The IL-10 induction assay is described in the “Assay” section of the Description, infra.
The evaluation of the novel compounds of the invention for psoriasis is done using the Keratinocyte Proliferation Assay in combination with other assays that measure inhibition of IL-2 production and stimulation of IL-10 production in peripheral blood mononuclear cells (PBMCs).
6. The IL-1 Induction Assay
This is an in vitro efficacy assay for psoriasis, abscess and adhesion. Psoriasis involves both keratinocytes and immune cells. IL-10 is a unique cytokine because it is anti-inflammatory and immunosuppressive. This assay tells us whether a VDRM is able to function as an agonist in PBMCs (primary blood mononuclear cells) or not. A lower EC50 value is desirable in this assay since a compound with a lower EC50 value will be a better agonist in PBMCs. An acceptable test result is an EC50 value of less than 200 nM.
(6) Materials and Method for Human IL-10 Induction Assay:
Isolation of peripheral blood mononuclear cells (PBMCs):
• A. Collect 50 ml of human blood and dilute with media, RPMI-1640. • B. Prepare sterile tubes with ficol. • C. Add diluted blood to tubes. • D. Centrifuge. • E. Discard the top layer and collect the cells from middle layer. • F. Divide all cells into four tubes and add media. • G. Centrifuge. • H. Aspirate off media and resuspend. • I. Collect all cells • J. Centrifuge. at 1200 rpm for 10 minutes. • K. Resuspend in RPMI-1640 with 2% FBS and count cells • Stimulation of PBMC: • L. Prepare TPA in DMSO. • M. Dissolve PHA in water. • N. Plate TPA/PHA treated PBMCs in well plates. • O. Incubate. • Treatment: • P. Prepare all compound dilutions in plain RPMI-1640 media. • Q. Add diluted compound. • R. Incubate. • Sample Collection and assay: • S. Remove all the cells by centrifugation and assay the supernatant for IL-10 by immunoassay. • 1) T. Perform IL-10 assay using anti-human IL-10 antibody coated beads, as described by the manufacturer (Linco Research Inc., St. Charles, Mo.).

The subject of data set [3] is rat osteocalcin promoter. Briefly: OCN (osteocalcin) promoter assay in RG-15 (ROS 17/2.8) cells. Format: cell-based. The procedure, abridged: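 Rat osteoblast-like RG-15 (ROS 17/2.8) cells stably carry the rat osteocalcin promoter fused to luciferase. They were treated with compounds for 48 h in medium with 2% FBS and 0.01% DMSO. EC50 was derived from luciferase activity in cell lysates.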

For data set [4], the system named is KERtr cells. Kind of data set: Keratinocyte proliferation assay (BrdU incorporation). Format: cell-based. The conditions noted are these: KERtr human skin keratinocytes, 72 hr treatment, read-out: Kera. Prolif. IC50. As for the experimental part:
6. The keratinocyte proliferation assay is described in the “Assay” section of the Description, infra.
5. The Keratinocyte Proliferation Assay
This Assay is indicative for the treatment of psoriasis.
(5) The Keratinocyte Proliferation Assay:
KERtr cells (Human skin keratinocyte transformed with a retrovirus vector, obtained from ATCC) were plated in 96-well flat-bottomed plates (3000 cells/well) in 100 µl keratinocyte serum free medium supplemented with bovine pituitary extract in the absence of EGF (Life Technologies, Rockville, Md.) and incubated at 37° C. for two days. The cells were treated with various concentrations of VDR ligands (ten-fold serial dilution from 10,000 nM to 0.1 nM in triplicate), dissolved in 100 µl keratinocyte serum free medium supplemented with bovine pituitary extract in the absence of EGF and incubated at 37° C. for 72 hr. […] Potency values (IC50) values were determined as the concentration (nM) of compound that elicited a half-maximal response.

[5] abbreviates: Homo sapiens, Keratinocyte, 72 h.

What is called pIC50 is the IC50 on a negative log10 scale, so that one unit is a factor of ten. A word on the pEC50: it is −log10 of the EC50, conventionally taken in molar units. Take `CCC(CC)(c1ccc(OCC(O)C(C)(C)C)c(C)c1)c1cc(C)c(C(=O)N[C@@H](C)C(=O)O)s1` (stereo partly drawn) [Ex. 65, L-2-[(5-{1-Ethyl-1-[4-(2-hydroxy-3,3-dimethyl-butoxy)-3-methyl-phenyl]-propyl}-3-methyl-thiophene-2-carbonyl)-amino]-propionic acid]: in data set [1], the “Mouse Hypercal” value was 300 µg/kg/day. Besides, the pIC50 is 7.39 in data set [2] (Homo sapiens, PBMC) and 7.25 in data set [4]. The pEC50 in data set [3] is 8.47.

For `CCCc1cc(C(CC)(CC)c2ccc(C(=O)O)s2)ccc1OCC(O)C(C)(C)C` (stereo not shown) [Ex. 93, 3′-[4-(2-hydroxy-3,3-dimethylbutoxy)-3-n-propylphenyl]-3′-[5-carboxy-thiophen-2-yl]pentane], the “Mouse Hypercal” value in data set [1] was 3000 µg/kg/day. Also, the negative logarithm of the EC50 (pEC50) in data set [3] (Rattus norvegicus) is 7.41. Moreover, the pIC50 in data set [4] (setting [5]) was 6.75.

For the compound `CCc1cc(C(CC)(CC)c2ccc(C(=O)O)s2)ccc1OCC(C)(O)C(C)(C)C` (single isomer, unassigned) [Ex. 108, 3′-[4-(2-hydroxy-2,3,3-trimethylbutoxy)-3-ethylphenyl]-3′-[5-carboxy-thiophen-2-yl]pentane], the “Mouse Hypercal” value in data set [1] is 300 µg/kg/day. Moreover, the pIC50 in data set [2] (Homo sapiens, PBMC) was 6.22; in data set [4] (setting [5]) it was 7.18. For the same compound, in data set [3] (Rattus norvegicus), the negative logarithm of the EC50 (pEC50) is 8.28.

As to `CCC(CC)(c1ccc(OCC(O)C(C)(C)C)c(C)c1)c1cc(C)c(S(=O)(=O)NCC(=O)O)s1` (stereo not shown) [Ex. 138], the pIC50 in data set [2] (Homo sapiens, PBMC) was 6.96; in data set [4] (setting [5]), 6.99.

`CCC(CC)(c1ccc(CCC(=O)O)c(C)c1)c1cc(C)c(CCC(O)C(C)(C)C)s1` (single isomer, unassigned) [Ex. 30B]: the pIC50 in data set [2] (Homo sapiens, PBMC) was 6.92.

As to `CCC(CC)(c1ccc(OCC(O)C(C)(C)C)c(C)c1)c1cc(C)c(C(=O)N[C@@H](C)C(=O)O)s1` (stereo partly drawn) [Ex. 55, L-2-[(5-{1-Ethyl-1-[4-(2-hydroxy-3,3-dimethyl-butoxy)-3-methyl-phenyl]-propyl}-3-methyl-thiophene-2-carbonyl)-amino]-propionic acid], the “Mouse Hypercal” value in data set [1] was 1000 µg/kg/day. Moreover, the pEC50 in data set [3] is 7.53. Besides, the pIC50 in data set [4] is 10.00.

Regarding `CCC(CC)(c1ccc(OCC(O)C(C)(C)C)c(C)c1)c1cc(C)c(-c2n[nH]c(=O)o2)s1` (stereo not shown) [Ex. 170], the pIC50 in data set [2] (Homo sapiens, PBMC) was 7.00.

As to `CCC(CC)(c1ccc(OCC(O)C(C)(C)C)c(C)c1)c1cc(C)c(C(=O)NC(C)(C)C(=O)O)s1` (single isomer, unassigned) [Ex. 77, 2-[(5-{1-Ethyl-1-[4-(2-hydroxy-3,3-dimethyl-butoxy)-3-methyl-phenyl]-propyl}-3-methyl-thiophene-2-carbonyl)-amino]-2-methyl-propionic acid], the “Mouse Hypercal” value in data set [1] was 300 µg/kg/day. Further, the negative logarithm of the EC50 (pEC50) in data set [3] is 8.70. In addition, in data set [4], the negative logarithm of the IC50 (pIC50) was 6.71.

For the compound `CCc1cc(C(CC)(CC)c2ccc(C(=O)O)s2)ccc1OCC(O)C(C)(C)C` (single isomer, unassigned) [Ex. 100, 3′-[4-(2-hydroxy-3,3-dimethylbutoxy)-3-ethylphenyl]-3′-[5-carboxy-thiophen-2-yl]pentane], in data set [1], the “Mouse Hypercal” value was 3000 µg/kg/day. Moreover, in data set [3], the pEC50 is 8.25. Moreover, the pIC50 in data set [4] (setting [5]) is 6.67.

With `CCC(CC)(c1ccc(OCC(=O)C(C)(C)C)c(C)c1)c1cc(C)c(CS(C)(=O)=O)s1` [Ex. 9], the pIC50 in data set [2] (Homo sapiens, PBMC) was 7.01; in data set [4] (setting [5]), 6.89. Moreover, the pEC50 in data set [3] (Rattus norvegicus) is 7.33.

Take `CCC(CC)(c1ccc(OCC(=O)C(C)(C)C)c(C)c1)c1ccc(OCC(=O)C(C)(C)C)c(C)c1` [DD, reference compound]: the “Mouse Hypercal” value in data set [1] is 1000 µg/kg/day. Moreover, the pEC50 in data set [3] (Rattus norvegicus) is 7.51. Also, in data set [4] (setting [5]), the pIC50 is 5.97.

Turning to `CCC(CC)(c1ccc(OCC(O)C(C)(C)C)c(C)c1)c1cc(C)c(C(=O)NC(C)(C)C(=O)O)s1` (single isomer, unassigned) [Ex. 71, 2-[(5-{1-Ethyl-1-[4-(2-hydroxy-3,3-dimethyl-butoxy)-3-methyl-phenyl]-propyl}-3-methyl-thiophene-2-carbonyl)-amino]-2-methyl-propionic acid], in data set [1], the “Mouse Hypercal” value was under 300 µg/kg/day. Moreover, in data set [3] (Rattus norvegicus), the negative logarithm of the EC50 (pEC50) was 8.46. For the same compound, the pIC50 in data set [4] is 7.54.

For `CCC(CC)(c1ccc(OCC(O)C(C)(C)C)c(C(C)C)c1)c1ccc(C(=O)O)s1` (single isomer, unassigned) [Ex. 97, 3′-[4-(2-hydroxy-3,3-dimethylbutoxy)-3-i-propylphenyl]-3′-[5-carboxy-thiophen-2-yl]pentane], the “Mouse Hypercal” value in data set [1] is 3000 µg/kg/day. Moreover, the negative logarithm of the EC50 (pEC50) in data set [3] (Rattus norvegicus) is 7.65.

With `CCC(CC)(c1ccc(OCC(=O)O)c(C)c1)c1cc(C)c(CCC(O)C(C)(C)C)s1` (single isomer, unassigned) [Ex. 33B, 3′-[5-(3-hydroxy-4,4-dimethylpentyl)-4-methylthiophen-2-yl]-3′-[4-(carboxylmethoxy)-3-methylphenyl]pentane], the “Mouse Hypercal” value in data set [1] is 1000 µg/kg/day. Moreover, in data set [3], the negative logarithm of the EC50 (pEC50) is 8.12. In addition, the negative logarithm of the IC50 (pIC50) in data set [4] (setting [5]) is 7.65.

On to `CCC(CC)(c1ccc(OCC(=O)Nc2nnn[nH]2)c(C)c1)c1cc(C)c(CCC(O)C(C)(C)C)s1` (single isomer, unassigned) [Ex. 35, 3′-[5-(3-hydroxy-4,4-dimethylpentyl)-4-methylthiophen-2-yl]-3′-[4-(tetrazol-5-yl-aminocarbonylmethoxy)-3-methylphenyl]pentane], for which, in data set [1], the “Mouse Hypercal” value is 3000 µg/kg/day. For the same compound, in data set [3], the negative logarithm of the EC50 (pEC50) is 7.68. Also, in data set [4] (setting [5]), the pIC50 was 6.32.

As to `C=C1/C(=C\C=C2/CCC[C@]3(C)[C@@H]([C@H](C)CCCC(C)(C)O)CC[C@@H]23)C[C@@H](O)C[C@@H]1O` [AA, 1α,25-dihydroxyvitamin D3, reference compound], in data set [1], the “Mouse Hypercal” value was 0.06 µg/kg/day. Also, the pIC50 in data set [2] was 8.92. In addition, the negative logarithm of the EC50 (pEC50) in data set [3] is 8.30.

As for `CCC(CC)(c1ccc(OS(C)(=O)=O)c(C)c1)c1cc(C)c(CCC(O)C(C)(C)C)s1` (single isomer, unassigned) [Ex. 19A], the negative logarithm of the IC50 (pIC50) in data set [2] (Homo sapiens, PBMC) was 7.22; in data set [4] (setting [5]), 7.74.

As to `CCC(CC)(c1ccc(OCC(C)(O)C(C)(C)C)c(C)c1)c1ccc(C(=O)NCC(=O)O)s1` (single isomer, unassigned) [Ex. 106, 3′-[4-(2-hydroxy-2,3,3-trimethylbutoxy)-3-methylphenyl]-3′-[5-(carboxymethylamino)carbonyl-thiophen-2-yl]pentane], the “Mouse Hypercal μg/Kg/d” value in data set [1] is on record as “>=1000 μg/Kg/d”. Also, in data set [3] (Rattus norvegicus), the negative logarithm of the EC50 (pEC50) is 8.09. Besides, in data set [4] (setting [5]), the pIC50 was 7.89.

Take `CCC(CC)(c1ccc(OCC(O)C(C)(C)C)c(C)c1)c1cc(C)c(C(=O)N[C@H](C)C(=O)O)s1` (stereo partly drawn) [Ex. 67, D-2-[(5-{1-Ethyl-1-[4-(2-hydroxy-3,3-dimethyl-butoxy)-3-methyl-phenyl]-propyl}-3-methyl-thiophene-2-carbonyl)-amino]-propionic acid]: in data set [1], the “Mouse Hypercal” value was 3000 µg/kg/day. Also, the negative logarithm of the EC50 (pEC50) in data set [3] is 7.71. Further, the pIC50 in data set [4] (setting [5]) was 6.71.
